Where a name gives a salt, the structure may show the parent alone.

`Nc1cccc(-c2ccc(CCN3CCN(C(=O)Oc4ccccc4)CC3)cc2)n1` showed a melting point of 102 to 104 °C.

Consider `Nc1cccc(-c2ccc(CCN3CCc4ccccc4C3)cc2)n1` [Example 6, 6-{4-[2-(3,4-Dihydro-1H-isoquinolin-2-yl)-ethyl]-phenyl}-pyridin-2-ylamine], for which the melting point was 130 to 132 °C.

With `Nc1cccc(-c2ccc(CCN3CCC(NC(=O)Nc4ccccc4)C3)cc2)n1` (centres unmarked) (as salt: hydrochloride) [Example 72, 1-(1-{2-[4-(6-Amino-pyridin-2-yl)-phenyl]-ethyl}-pyrrolidin-3-yl)-3-phenyl-urea], the melting point was 130 °C (dec.).

The compound `Cc1cccc(N2CCN(CCc3ccc(-c4cccc(N)n4)cc3)CC2)c1` [Example 8, 6-{4-[2-(4-m-Tolyl-piperazin-1-yl)-ethyl]-phenyl}-pyridin-2-ylamine] had a melting point of 158 to 160 °C.

For the compound `Nc1cccc(-c2ccc(CCN3C4CCC3CC(NC(=O)Cc3ccc(F)cc3)C4)cc2)n1` (centres unmarked) (as salt: hydrochloride), the melting point is 160 °C (dec.).

For the origin of these results see patent publication US6465491B2, “6-phenylpyridyl-2-amine derivatives” (Pfizer Inc., priority 1996, dated 2002).
